Here are results for one compound from patent US12023330B2, “Use of manzamines as antiproliferative agent” (priority 2020, dated 2024).

One series has as its system SiHa cells. Briefly: Apoptosis analysis (annexin V and PI staining). The class given is cell-based, human. The conditions noted are these: 4 μM, 48 hours. The method, then:
(§1) Since programmed cell death (apoptosis) is a key mechanism by which anti-cancer drugs kill cancer cells, we determined the apoptotic effect of manzamine A on cervical cancer cells using annexin V and PI staining. […] Given the sensitivity of C33A and HeLa cell lines to manzamine A, an increase in apoptosis was expected. […] CaSki cells were the least sensitive and corresponds to the IC50 values as in FIG. 2.
(§2) Cell-cycle and Apoptosis Analysis. Cervical cancer cells were seeded and treated with different concentrations of manzamine A (1) as above. Following trypsinization, one part of the cells was washed with PBS and fixed in chilled 70% ethanol on ice for 30 min. Cells were treated with RNAse A (1 mg/ml) at room temperature for 30 min and stained with propidium iodide (PI: 20 μg/ml). Cell-cycle distribution was analyzed by flow cytometry (Beckman Coulter Epics Elite, Beckman). A minimum of 10,000 events were counted per sample, and the data were analyzed using CXP software (Beckman Coulter) for the proportions of cells in G0/G1, S and G2/M phases of the cell cycle. The second part of the cells were washed twice with PBS and re-suspended in the buffer containing Alexa Fluor conjugated-Annexin-V and PI (Life Technologies, USA). The double staining of the cells was analyzed by flow cytometric analysis. A total of 10,000 cell events were collected to analyze the extent of early, late apoptosis, or necrosis from each sample with the percentages of bound annexin-V^+/PI^−, annexin V^+/PI^+, and annexin V^−/PI^+, respectively.

In series [1] the test system is C33A cells. Briefly: Apoptosis analysis (annexin V and PI staining). It counts as cell-based, human. The method, then: as §1, §2
Series [2] concerns HeLa cells. Nature of the series: Apoptosis analysis (annexin V and PI staining). It counts as cell-based, human. The method, then:
as §1, §2

Series [3] concerns CaSki cells. Briefly: Apoptosis analysis (annexin V and PI staining). The note with it: 4 μM, 48 hours. It counts as cell-based, human. The method, then: as §1, §2
Series [4] is described as follows: Weight loss at high doses. The class given is in vivo. An excerpt: The manzamine class of marine alkaloids is attractive in its potential for the development of novel therapeutics. This group has among the most extensively studied marine natural products to date, being found in more than 16 species of Indo-Pacific sponges distributed within distinct geographical regions. […] These molecules also show interesting activity as neuroprotective and anti-inflammatory agents, HIV/AIDS-associated opportunistic infections, and inhibition of cancer proliferative and metastatic activity. See Ridley, R. G.; Matile, H.; Jaquet, C.; Dorn, A.; Hofheinz, W.; Leupin, W.; Masciadri, R.; Theil, F. P.; Richter, W. F.; Girometta, M. A.; Guenzi, A.; Urwyler, H.; Gocke, E.; Potthast, J. M.; Csato, M.; Thomas, A.; Peters, W. Antimicrob. Agents Chemother. 1997, 41, 677-686. […] It is anticipated that short-term weight-loss would be less problematic or would not necessarily offset the therapeutic gain in cancer patients.

Series [5] deals with C33A, HeLa, SiHa and CaSki cell lines. Briefly: Cell growth kinetics. The class given is cell-based, human. The procedure: To maintain the treatment uniformity across the cell lines, we selected optimal dose concentration of 1 to 4 μM, and treated C33A, HeLa, SiHa and CaSki cell lines.
Cell Growth Kinetics. Cervical cancer cells (1×10^6) or HKc (2×10^5) were plated in 100 mm tissue culture petri dish or 6-well plates. Following overnight incubation, cells were treated with 2 μM or 4 μM concentrations of manzamine A (1) derivatives for different time points (24, 48 and 72 hours). Dimethyl sulphoxide (DMSO) was used as control. The cell proliferation activity was determined by cell counting under the microscope with a hemocytometer using trypan blue staining.

The subject of series [6] is C33A cells. Briefly: CellTiter-Glo cell viability assay. The class given is cell-based, human. The procedure:
(§3) Biological Effect of Marine Sponge Natural Product Manzamine A on Cervical Cancer Cell Growth. We determined the biological activity of manzamine A on cervical cancer cells C33A (HPV-negative), HeLa, SiHa, and CaSki (HPV16/18-positive) using a wide range of concentrations (0-40 μM) at different time points (24, 48 and 72 hours). The CellTiter-Glo cell viability assay determined the cell viability based on metabolically active cells producing ATP in the cell culture. […] Twenty thousand (2×10^4) cells were seeded in ninety-six well plates and treated with a wide range of 1 μM to 40 μM concentration of manzamine A for three time points (24, 48 and 72 h). The experiment was repeated at least three times in quadruplicates from different cell preparations with similar results. Percent viable cells were used to calculate IC50 values and are shown in the inset for all the cell lines at their respective time-points. The percent viability values represent standard error from the mean (mean±SE).
(§4) Cell Culture. Human cervical cancer cell lines C33A, HeLa, SiHa, and CaSki were purchased from the American Type Culture Collection (ATCC, Manassas, VA). Cells were grown in Dulbecco's Modified Eagle Medium (DMEM) medium supplemented with 10% fetal bovine serum, 2 mM L-glutamine, 100 U/ml of penicillin-streptomycin, and maintained at 37° C. with 5% CO2 in a humidified incubator.
(§5) Cell Viability Assay. Cell viability was measured by using Cell Titer-Glo Luminescent Cell Viability Assay Kit (Promega, Leiden, Netherlands) according to the manufacturer's instructions. Briefly, 2×10^4 cells were seeded in 96 well plates. Next day, cells were treated with different concentrations of MA (0-40 μM) for 24, 48 and 72 hours. Percent viability was calculated using the formula: percent (%) viability=100×(Treatment/Control). The IC50 value was calculated from the dose responsive sigmoid curve generated from % viability using GrpaphPad Prism 7 software.
On the technique in general: In ATP-based viability assays light output follows the ATP content of the culture.

Series [7] deals with HeLa cells. Nature of the series: CellTiter-Glo cell viability assay. It counts as cell-based, human. The procedure: as §3, §4, §5
Series [8] concerns CaSki cells. Nature of the series: CellTiter-Glo cell viability assay. It counts as cell-based, human. The method, then: as §3, §4, §5

By IC50 is commonly meant the midpoint of a concentration-inhibition curve. Low readings indicate greater potency in that assay, high ones weaker potency in that assay. Take `O[C@]12C=C(c3nccc4c3[nH]c3ccccc34)[C@@H]3CCN(CCCC/C=C\CC1)C[C@@]31C[C@@H]3/C=C\CCCCN3[C@H]12` [manzamine A]: the “percentage of induced apoptotic cells (apoptosis+ necrosis)” value was 33.6% in the series on SiHa cells; 36.5% with C33A cells [1] (4 μM, 48 hours); 75.9% in the series with HeLa cells [2] (4 μM, 48 hours); 23.2% in the series with CaSki cells [3]. In addition, the apoptosis and necrosis result with C33A cells [1] (24 hours) is “induces apoptosis”. Further, the apoptosis result in the series with HeLa cells [2] (forty-eight hours treatment) is given as “significant increase”. The body weight entry in series [4] was “weight loss”. Also, the “cervical cancer cell proliferation” value in series [5] (1 to 4 μM, time- and dose-dependent, vs DMSO control) is listed as “significantly inhibited”. The “anti-proliferative, non-cytotoxic concentrations” value in series [5] (cervical cancer cells) is listed as “up to 4 μM”. Moreover, the IC50 came to 2.1 µM in the series on C33A cells [6] (48 hours); 1.6 µM with C33A cells [6] (72 hours); 4 µM in the series with HeLa cells [7] (48 hours); 5.3 µM with HeLa cells [7] (72 hours); 19.9 µM in the series with CaSki cells [8] (48 hours); 9.4 µM in the series on CaSki cells [8] (72 hours).
